{"source": "PubChem BioAssay (NCI)", "assay_in_all_cases": "DTP human tumour cell line panel, 48 h", "key": {"[1]": {"tested_on": "KM12 colon"}, "[2]": {"tested_on": "SNB-75 CNS"}, "[3]": {"tested_on": "HCT-116 colon"}, "[4]": {"tested_on": "OVCAR-8 ovarian"}, "[5]": {"tested_on": "SR leukemia"}, "[6]": {"tested_on": "A549 NSCLC"}, "[7]": {"tested_on": "SW-620 colon"}, "[8]": {"tested_on": "SF-295 CNS"}, "[9]": {"tested_on": "MDA-MB-435"}, "[10]": {"tested_on": "OVCAR-3 ovarian"}, "[11]": {"tested_on": "HCC-2998 colon"}, "[12]": {"tested_on": "U251 CNS"}, "[13]": {"tested_on": "UACC-257 melanoma"}, "[14]": {"tested_on": "HOP-92 NSCLC"}, "[15]": {"tested_on": "OVCAR-5 ovarian"}, "[16]": {"tested_on": "M14 melanoma"}, "[17]": {"tested_on": "NCI/ADR-RES ovarian"}, "[18]": {"tested_on": "SK-OV-3 ovarian"}, "[19]": {"tested_on": "TK-10 renal"}, "[20]": {"tested_on": "DU-145 prostate"}, "[21]": {"tested_on": "CAKI-1 renal"}, "[22]": {"tested_on": "ACHN renal"}, "[23]": {"tested_on": "SN12C renal"}, "[24]": {"tested_on": "SK-MEL-28 melanoma"}, "[25]": {"tested_on": "MCF7 breast"}, "[26]": {"tested_on": "NCI-H460 lung"}, "[27]": {"tested_on": "LOX IMVI melanoma"}, "[28]": {"tested_on": "PC-3 prostate"}, "[29]": {"tested_on": "MALME-3M melanoma"}, "[30]": {"tested_on": "UO-31 renal"}, "[31]": {"tested_on": "A498 renal"}, "[32]": {"tested_on": "SF-539 CNS"}, "[33]": {"tested_on": "HCT-15 colon"}, "[34]": {"tested_on": "SNB-19 CNS"}, "[35]": {"tested_on": "SF-268 CNS"}, "[36]": {"tested_on": "MDA-MB-231 breast"}, "[37]": {"tested_on": "HS 578T breast"}, "[38]": {"tested_on": "NCI-H226 lung"}, "[39]": {"tested_on": "NCI-H23 lung"}, "[40]": {"tested_on": "RXF 393 renal"}, "[41]": {"tested_on": "SK-MEL-5 melanoma"}, "[42]": {"tested_on": "OVCAR-4 ovarian"}, "[43]": {"tested_on": "786-0 renal"}, "[44]": {"tested_on": "RPMI-8226 leukemia"}, "[45]": {"tested_on": "CCRF-CEM leukemia"}, "[46]": {"tested_on": "T-47D breast"}, "[47]": {"tested_on": "IGROV1 ovarian"}, "[48]": {"tested_on": "NCI-H522 lung"}, "[49]": {"tested_on": "UACC-62 melanoma"}, "[50]": {"tested_on": "HOP-62 NSCLC"}, "[51]": {"tested_on": "BT-549 breast"}, "[52]": {"tested_on": "HT29 colon"}, "[53]": {"tested_on": "COLO 205 colon"}}, "note": "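All cell lines were grown in 96-well plates and treated with compound for 48 hours. GI50 = concentration required for 50% inhibition of growth. At the TGI there is no net growth.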"}
{"smiles": "CCOC(=O)/C(=C/c1ccccc1)C(=O)c1ccccc1", "values": [{"measurement": "GI50", "setting": "[1]", "result": 2.82, "unit": "µM"}, {"measurement": "TGI", "setting": "[1]", "result": 7.54, "unit": "µM"}, {"measurement": "GI50", "setting": "[2]", "result": 2.95, "unit": "µM"}, {"measurement": "TGI", "setting": "[2]", "result": 14.5, "unit": "µM"}, {"measurement": "GI50", "setting": "[3]", "result": 2.04, "unit": "µM"}, {"measurement": "TGI", "setting": "[3]", "result": 4.39, "unit": "µM"}, {"measurement": "GI50", "setting": "[4]", "result": 2.4, "unit": "µM"}, {"measurement": "TGI", "setting": "[4]", "result": 6.79, "unit": "µM"}, {"measurement": "GI50", "setting": "[5]", "result": 3.43, "unit": "µM"}, {"measurement": "TGI", "setting": "[5]", "result": 18, "unit": "µM"}, {"measurement": "GI50", "setting": "[6]", "result": 4.4, "unit": "µM"}, {"measurement": "TGI", "setting": "[6]", "result": 19.9, "unit": "µM"}, {"measurement": "GI50", "setting": "[7]", "result": 2.77, "unit": "µM"}, {"measurement": "TGI", "setting": "[7]", "result": 7.6, "unit": "µM"}, {"measurement": "GI50", "setting": "[8]", "result": 4.19, "unit": "µM"}, {"measurement": "TGI", "setting": "[8]", "result": 15.2, "unit": "µM"}, {"measurement": "GI50", "setting": "[9]", "result": 2.96, "unit": "µM"}, {"measurement": "TGI", "setting": "[9]", "result": 11.5, "unit": "µM"}, {"measurement": "GI50", "setting": "[10]", "result": 8.14, "unit": "µM"}, {"measurement": "TGI", "setting": "[10]", "result": 20.4, "unit": "µM"}, {"measurement": "GI50", "setting": "[11]", "result": 1.93, "unit": "µM"}, {"measurement": "TGI", "setting": "[11]", "result": 3.69, "unit": "µM"}, {"measurement": "GI50", "setting": "[12]", "result": 3.22, "unit": "µM"}, {"measurement": "TGI", "setting": "[12]", "result": 13.6, "unit": "µM"}, {"measurement": "GI50", "setting": "[13]", "result": 2.52, "unit": "µM"}, {"measurement": "TGI", "setting": "[13]", "result": 10.1, "unit": "µM"}, {"measurement": "GI50", "setting": "[14]", "result": 3.92, "unit": "µM"}, {"measurement": "TGI", "setting": "[14]", "result": 21.8, "unit": "µM"}, {"measurement": "GI50", "setting": "[15]", "result": 4.05, "unit": "µM"}, {"measurement": "TGI", "setting": "[15]", "result": 16.9, "unit": "µM"}, {"measurement": "GI50", "setting": "[16]", "result": 3.77, "unit": "µM"}, {"measurement": "TGI", "setting": "[16]", "result": 15.5, "unit": "µM"}, {"measurement": "GI50", "setting": "[17]", "result": 3.6, "unit": "µM"}, {"measurement": "TGI", "setting": "[17]", "result": 70, "unit": "µM"}, {"measurement": "GI50", "setting": "[18]", "result": 14.4, "unit": "µM"}, {"measurement": "TGI", "setting": "[18]", "result": 27.9, "unit": "µM"}, {"measurement": "GI50", "setting": "[19]", "result": 3.41, "unit": "µM"}, {"measurement": "TGI", "setting": "[19]", "result": 11.2, "unit": "µM"}, {"measurement": "GI50", "setting": "[20]", "result": 5.32, "unit": "µM"}, {"measurement": "TGI", "setting": "[20]", "result": 17.4, "unit": "µM"}, {"measurement": "GI50", "setting": "[21]", "result": 3.04, "unit": "µM"}, {"measurement": "TGI", "setting": "[21]", "result": 10.4, "unit": "µM"}, {"measurement": "GI50", "setting": "[22]", "result": 2.62, "unit": "µM"}, {"measurement": "TGI", "setting": "[22]", "result": 6.99, "unit": "µM"}, {"measurement": "GI50", "setting": "[23]", "result": 3.21, "unit": "µM"}, {"measurement": "TGI", "setting": "[23]", "result": 12, "unit": "µM"}, {"measurement": "GI50", "setting": "[24]", "result": 2.42, "unit": "µM"}, {"measurement": "TGI", "setting": "[24]", "result": 6.59, "unit": "µM"}, {"measurement": "GI50", "setting": "[25]", "result": 3.13, "unit": "µM"}, {"measurement": "TGI", "setting": "[25]", "result": 15.9, "unit": "µM"}, {"measurement": "GI50", "setting": "[26]", "result": 3.27, "unit": "µM"}, {"measurement": "TGI", "setting": "[26]", "result": 10.9, "unit": "µM"}, {"measurement": "GI50", "setting": "[27]", "result": 1.8, "unit": "µM"}, {"measurement": "TGI", "setting": "[27]", "result": 3.82, "unit": "µM"}, {"measurement": "GI50", "setting": "[28]", "result": 4.6, "unit": "µM"}, {"measurement": "TGI", "setting": "[28]", "result": 22.7, "unit": "µM"}, {"measurement": "GI50", "setting": "[29]", "result": 2.94, "unit": "µM"}, {"measurement": "TGI", "setting": "[29]", "result": 9.09, "unit": "µM"}, {"measurement": "GI50", "setting": "[30]", "result": 1.76, "unit": "µM"}, {"measurement": "TGI", "setting": "[30]", "result": 3.55, "unit": "µM"}, {"measurement": "GI50", "setting": "[31]", "result": 3.08, "unit": "µM"}, {"measurement": "TGI", "setting": "[31]", "result": 13.1, "unit": "µM"}, {"measurement": "GI50", "setting": "[32]", "result": 2.63, "unit": "µM"}, {"measurement": "TGI", "setting": "[32]", "result": 7.8, "unit": "µM"}, {"measurement": "GI50", "setting": "[33]", "result": 2.97, "unit": "µM"}, {"measurement": "TGI", "setting": "[33]", "result": 11.2, "unit": "µM"}, {"measurement": "GI50", "setting": "[34]", "result": 5.84, "unit": "µM"}, {"measurement": "TGI", "setting": "[34]", "result": 20.7, "unit": "µM"}, {"measurement": "GI50", "setting": "[35]", "result": 4.37, "unit": "µM"}, {"measurement": "TGI", "setting": "[35]", "result": 21.1, "unit": "µM"}, {"measurement": "GI50", "setting": "[36]", "result": 3.06, "unit": "µM"}, {"measurement": "TGI", "setting": "[36]", "result": 12, "unit": "µM"}, {"measurement": "GI50", "setting": "[37]", "result": 3.03, "unit": "µM"}, {"measurement": "TGI", "setting": "[37]", "result": 18.8, "unit": "µM"}, {"measurement": "GI50", "setting": "[38]", "result": 3.48, "unit": "µM"}, {"measurement": "TGI", "setting": "[38]", "result": 18.9, "unit": "µM"}, {"measurement": "GI50", "setting": "[39]", "result": 3.75, "unit": "µM"}, {"measurement": "TGI", "setting": "[39]", "result": 16.5, "unit": "µM"}, {"measurement": "GI50", "setting": "[40]", "result": 2.04, "unit": "µM"}, {"measurement": "TGI", "setting": "[40]", "result": 3.92, "unit": "µM"}, {"measurement": "GI50", "setting": "[41]", "result": 2.91, "unit": "µM"}, {"measurement": "TGI", "setting": "[41]", "result": 9.35, "unit": "µM"}, {"measurement": "GI50", "setting": "[42]", "result": 14.4, "unit": "µM"}, {"measurement": "TGI", "setting": "[42]", "result": 35.4, "unit": "µM"}, {"measurement": "GI50", "setting": "[43]", "result": 3.02, "unit": "µM"}, {"measurement": "TGI", "setting": "[43]", "result": 8.09, "unit": "µM"}, {"measurement": "GI50", "setting": "[44]", "result": 2.25, "unit": "µM"}, {"measurement": "TGI", "setting": "[44]", "result": 5.98, "unit": "µM"}, {"measurement": "GI50", "setting": "[45]", "result": 2.61, "unit": "µM"}, {"measurement": "TGI", "setting": "[45]", "result": 9.44, "unit": "µM"}, {"measurement": "GI50", "setting": "[46]", "result": 6.17, "unit": "µM"}, {"measurement": "TGI", "setting": "[46]", "result": 32.5, "unit": "µM"}, {"measurement": "GI50", "setting": "[47]", "result": 2.86, "unit": "µM"}, {"measurement": "TGI", "setting": "[47]", "result": 8.05, "unit": "µM"}, {"measurement": "GI50", "setting": "[48]", "result": 2.14, "unit": "µM"}, {"measurement": "TGI", "setting": "[48]", "result": 4.5, "unit": "µM"}, {"measurement": "GI50", "setting": "[49]", "result": 2.73, "unit": "µM"}, {"measurement": "TGI", "setting": "[49]", "result": 9.15, "unit": "µM"}, {"measurement": "GI50", "setting": "[50]", "result": 2.01, "unit": "µM"}, {"measurement": "TGI", "setting": "[50]", "result": 4.37, "unit": "µM"}, {"measurement": "GI50", "setting": "[51]", "result": 6.29, "unit": "µM"}, {"measurement": "TGI", "setting": "[51]", "result": 19.6, "unit": "µM"}, {"measurement": "GI50", "setting": "[52]", "result": 2.78, "unit": "µM"}, {"measurement": "TGI", "setting": "[52]", "result": 5.8, "unit": "µM"}, {"measurement": "GI50", "setting": "[53]", "result": 2.43, "unit": "µM"}, {"measurement": "TGI", "setting": "[53]", "result": 5.04, "unit": "µM"}]}
